In US20160089471A1, “SHEET FOR CUTANEOUS APPLICATION CONTAINING VITAMIN E OR AN ESTER THEREOF” (BIO.LO.GA. S.R.L., priority 2013, published 2016):

Experiments:
[1] = tested on: reconstituted human epidermis Epi-200 EpiDerm™; assay: Cytotoxicity by release of lactate dehydrogenase (LDH) in the culture medium; conditions: 18-hour treatment; Tukey Kramer Multiple Comparisons Test
Method: Tissue used: EPI-200-SIT EpiDerm™
Culture medium: EPI-100-MM-HCF-60
(§1) Incubation conditions: +37° C. in a 5% CO2 atmosphere
(§2) Treatment with the sample: • continuous contact and incubation for 18 hours (single) • continuous contact and incubation for 7 days (double)
(§3) Application was carried out by applying about 1 cm^2 of sample (i.e. of the sheet according to the invention obtained as per the example given above) per insert.
(§4) Controls Performed for the First Evaluation (18 hours): • Negative control after 18 hours: inserts not treated • Positive control: inserts treated with 0.5% SDS (Sodium Dodecylsulphate) in sterile water during 18 hours of incubation;
(§5) Controls Performed for the 7-Day Evaluation: • Negative control: inserts not treated with the sample and kept for 7 days in the same incubation conditions as those treated with the sample.
Evaluation of the Cytotoxicity by Means of Measurement of the Release of the Lactate Dehydrogenase (LDH) in the Culture Medium:
Evaluation in the culture medium obtained after the incubation period of the sample with the epidermis model. The culture medium is incubated with a specific reagent so as to allow quantitive determination of the lactate dehydrogenase at 490 nm.

[2] = tested on: reconstituted human epidermis Epi-200 EpiDerm™; assay: Cellular vitality by MTT assay on reconstituted epidermis (EpiDerm Skin Irritation Test, cumulative irritation); conditions: 18-hour treatment
Method: The assay in question was based on the In vitro Epiderm™ Skin Irritation Test (EPI-200-SIT) developed by the MatTek Corporation, which uses the model of reconstituted human epidermis Epi-200 EpiDerm™.
The assay consists in topical application of the material under testing on the reconstituted epidermis for contact times equal to or greater than 18 hours. The irritation potential is determined by means of evaluation of the cellular vitality using the MTT assay.
Tissue used: EPI-200-SIT EpiDerm™
Culture medium: EPI-100-MM-HCF-60
as §1, §2, §4, §5
MTT assay: colorimetric determination of the vitality of the keratinocytes of the insert based on the reduction of the yellow tetrazolium salts (MTT) to blue formazan by mitochondrial dehydrogenases.
continuous stimulation (overnight contact and incubation)

[3] = tested on: reconstituted human epidermis Epi-200 EpiDerm™; assay: Release of IL-1α in the culture medium (ELISA); conditions: 18-hour treatment; Tukey Kramer Multiple Comparisons Test
From the text: Further information for better defining the irritation potential was obtained from subsequent measurement of the following parameters: • evaluation of the release, in the culture medium, of the lactate dehydrogenase (LDH), a cytoplasmic enzyme, release of which indicates loss of integrity of the cellular membrane; • evaluation of the release, in the culture medium, of pro-inflammatory cytokine by means of ELISA (Enzyme Linked Immunosorbent Assay).
Tissue used: EPI-200-SIT EpiDerm™
Culture medium: EPI-100-MM-HCF-60
as §1, §2, §3
Controls Performed for the First Evaluation (18 hours): • Negative control after 18 hours: inserts not treated • Positive control: inserts treated with 0.5% SDS (Sodium Dodecylsulphate) in sterile water during 18 hours of incubation; […]
Evaluation in the culture medium obtained after the period of incubation of the sample with EPI-200. The release is measured by means of specific ELISA.

With CCCCCCCCCCCCOS(=O)(=O)[O-].[Na+] [Positive control, Sodium Dodecylsulphate] the “Statistical comparison of LDH release in relation to the negative control” value [1] was “*** (*** p < 0.001 extremely significant variation)”, the “Average value of OD ± SD” value ([2]; continuous contact) was 0.185 ± 0.004 and the “Average value of the % vitality” value ([2]; relative to negative control = 100%) was 8.40 ± 0.17%. For the same molecule, the “Statistical comparison of IL-1α release in relation to the negative control” value [3] was “*** (*** p < 0.001 extremely significant variation)”.
